Here are results for 20 compounds from patent US20220348590A1, “CYCLOOXYGENASE-2 INHIBITORS AND USES THEREOF” (The Board Institute, Inc., priority 2019, published 2022).

The target of the assay is T1, human recombinant COX2 (hCOX2) (UniProt P35354).
T1 sequence (P35354 1-604): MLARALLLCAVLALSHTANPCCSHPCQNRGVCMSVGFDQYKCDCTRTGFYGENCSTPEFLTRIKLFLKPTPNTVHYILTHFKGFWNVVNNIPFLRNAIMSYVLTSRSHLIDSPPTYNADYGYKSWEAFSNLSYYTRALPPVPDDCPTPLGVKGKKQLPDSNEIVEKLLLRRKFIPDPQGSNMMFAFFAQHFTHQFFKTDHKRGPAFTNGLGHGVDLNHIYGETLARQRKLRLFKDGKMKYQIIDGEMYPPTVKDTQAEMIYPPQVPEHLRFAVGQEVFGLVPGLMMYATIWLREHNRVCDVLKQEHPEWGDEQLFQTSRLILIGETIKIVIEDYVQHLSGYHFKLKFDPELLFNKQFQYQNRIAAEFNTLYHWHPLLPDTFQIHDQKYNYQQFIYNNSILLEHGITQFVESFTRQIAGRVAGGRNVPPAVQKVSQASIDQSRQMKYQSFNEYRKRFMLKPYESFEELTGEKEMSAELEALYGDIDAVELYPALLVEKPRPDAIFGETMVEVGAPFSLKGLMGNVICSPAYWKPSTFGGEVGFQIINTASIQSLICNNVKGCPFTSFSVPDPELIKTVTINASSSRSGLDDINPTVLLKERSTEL
The assay is described as follows: LCMS-based COX2 enzymatic inhibition assay (PGE2 quantification). The following applies: for COX2 2 minutes pge2/pge2d4 area ratio Avg. LLE / COX2 2 minutes pge2 area (counts) Avg. LLE / COX2 10 minutes pge2 area (counts) Avg. LLE: average LLE; for IC50: average. Details: COX2 2 minutes pge2/pge2d4 area ratio Avg; other: 2 minutes; readout pge2/pge2d4 area ratio; average; COX2 2 minutes pge2/pge2d4 area ratio Avg; LLE; average LLE; COX2 2 minutes pge2 area (counts) Avg; readout pge2 area (counts); other: 2 min; "ovine COX2 (oCOX2), human recombinant COX2 (hCOX2)". It counts as biochemical. As for the experimental part:
We have adapted a previously reported cyclooxygenase enzymatic assay utilizing LCMS quantification of PGE2 as the product of COX-1 and COX2 catalyzed conversion of arachidonic acid to evaluate the binding properties of newly synthesized ligands [Cao, 2011]. These optimized and miniaturized (384-well plates) LCMS-based COX-1 and COX2 enzymatic assays enabled us to quickly evaluate newly synthesized ligands for COX2 binding affinity and selectivity vs COX-1. Using a shorter ligand-enzyme incubation time in the LCMS assay (2 minutes vs 10 minutes) also permitted us to prioritize ligands with faster binding kinetics. Considering the relatively slow on-rate kinetics of known coxibs, due to their 3-step binding mechanism [Marnett, 2009], we believe that optimizing this critical parameter will be key to the successful development of a COX2 PET tracer. Using these enzymatic assays, we have evaluated>200 newly synthesized ligands against COX2 and >20 ligands against COX-1. Another critical property necessary for a good PET radiotracer is to have low non-specific binding (NSB) to increase the free fraction and maximize the signal to noise ratio. This property can be evaluated using in-vitro protein binding assays, and we have now evaluated>50 newly synthesized ligands in mouse, rat and human plasma protein binding (PPB) assays as well as >15 ligands in a mouse brain protein binding (BPB) assay.
Ovine COX-1 (oCOX-1), ovine COX2 (oCOX2), human recombinant COX2 (hCOX2), arachidonic acid, PGE2, d4-PGD2, and […] (labeled with deuterium atoms at positions 3 and 4) were purchased from Cayman Chemicals (Ann Arbor, Mich.). The cofactors (−)epinephrine and hematin, and the COX inhibitors indomethacin, resveratrol and diclofenac were purchased from Sigma-Aldrich (St. Louis, Mo.). Celecoxib was purchased from 3B PharmaChem International (Wuhan, China). All organic solvents were HPLC grade or better and were purchased from Thermo Fisher (Hanover Park, Ill.). Formic acid was purchased from EMD Chemicals (San Diego, Calif.). Purified water was prepared by using a Millipore Milli-Q purification system (Millipore, Billerica, Mass.). All other chemicals and solvents were ACS reagent grade, unless stated otherwise.
In an Eppendorf tube, 146 μL of 100 mM Tris.HCl (pH 8.0) buffer, 2 μL of 100 μM hematin (co-factor) and 10 μL of 40 mM L-epinephrine (co-factor) were mixed at room temperature. Next, 20 μL of Tris.HCl (pH 8.0) buffer containing 0.2 μg COX2 or 0.1 μg COX-1 (approximately 1 unit of enzyme; 1 unit COX utilizes 1 nmol 02/mg/min at 37° C.) was added, and the solution was incubated at room temperature for 2 min. A 2 μL aliquot of the COX inhibitor in DMSO was added to the enzyme solution and preincubated at 37° C. for 10 min. Negative controls were identical except that 2 μL aliquots of DMSO without inhibitor were used instead.
Each COX reaction was initiated by adding 20 μL of arachidonic acid in Tris.HCl (pH 8.0) buffer to give a final concentration of 5 μM; and the reaction was terminated after 2 min by adding 20 μL of 2.0 M HCl. The surrogate standards d4-PGE2 and d4-PGD2 (10 μL aliquot of 50 ng/mL solution in methanol) were added to correct for errors or degradation during sample handling and for variation in injection volume or instrument response during LC-MS-MS. After 30 min, PGE2, PGD2 and their surrogate standards were extracted from each incubation mixture using 800 μL hexane/ethyl acetate (50:50, v/v). The organic phase was removed, evaporated to dryness, and reconstituted in 100 μL methanol/water (50:50, v/v) for analysis using LC-MS-MS.
The concentration of PGE2 in each sample was measured using LC-MS-MS, and the percent of COX inhibition by each test solution was determined by comparing the amount of PGE2 produced in the experiment with that produced in the negative control incubation. The formation of PGD2 was measured for quality control purposes, since the levels of PGD2 should be proportional to those of PGE2. […]

Where [1] appears, read: 2 minutes, readout pge2/pge2d4 area ratio.
Where [2] appears, read: 2 minutes, readout pge2/pge2d4 area ratio, read-out: COX2 2 minutes pge2/pge2d4 area ratio Avg. IC50.
Setting [3] is: 2 minutes, readout pge2 area (counts).
Where [4] appears, read: 2 minutes, readout pge2 area (counts), read-out: COX2 2 minutes pge2 area (counts) Avg. IC50.
Where [5] appears, read: 10 minutes, readout pge2 area (counts).
Where [6] appears, read: 10 minutes, readout pge2 area (counts), read-out: COX2 10 minutes pge2 area (counts) Avg. IC50.
Setting [7] is: read-out: COX2 2 minutes pge2/pge2d4 area ratio Avg. IC50 (microM), 2 minutes, readout pge2/pge2d4 area ratio.

Read-outs that look alike come from different tables or passages of the source.

In the case of `CS(=O)(=O)c1ccc(-c2cncc(NCc3ccc(F)cn3)n2)cc1` [Compound 221], under setting [1], the “COX2 2 minutes pge2/pge2d4 area ratio Avg. LLE” value is 4.887. For the same compound, the IC50 was found to be 1.69 µM under setting [2], 2.69 µM under setting [4] and 1.96 µM under setting [6]. In addition, the “COX2 2 minutes pge2 area (counts) Avg. LLE” value (“COX2 2 minutes pge2 area” for short) under setting [3] stood at 4.735. Besides, the “COX2 10 minutes pge2 area (counts) Avg. LLE” value (“COX2 10 minutes pge2 area” for short) under setting [5] is listed as 4.836.
`CS(=O)(=O)c1ccc(-c2cc(NCc3ccco3)ncn2)cc1` [Compound 277]: the IC50 under setting [2] came out at 5.2 µM.
Regarding `CC(C)Oc1ncc(NCc2cccs2)nc1-c1ccc(S(C)(=O)=O)cc1` [Compound 75], the “COX2 2 minutes pge2/pge2d4 area ratio Avg. LLE” value under setting [1] is listed as 3.984. Also, the IC50 is, setting by setting: under setting [2], 0.0454 µM; under setting [4], 0.0623 µM. Further, the “COX2 2 minutes pge2 area” value under setting [3] was found to be 3.887.
In the case of `CS(=O)(=O)c1ccc(-c2cnc(N)c(OCc3cccs3)n2)cc1` [Compound 86], under setting [1], the “COX2 2 minutes pge2/pge2d4 area ratio Avg. LLE” value was found to be 5.134. In addition, the IC50 by setting is: under setting [2], 0.061 µM; under setting [4], 0.0682 µM. The “COX2 2 minutes pge2 area” value under setting [3] is 5.087.
`CS(=O)(=O)c1ccc(-c2cncc(SCc3cnoc3)n2)cc1` [Compound 213]: the “COX2 2 minutes pge2/pge2d4 area ratio Avg. LLE” value under setting [1] is recorded as 4.567. The IC50 runs as follows: under setting [2], 1.5 µM; under setting [4], 1.32 µM. Besides, the “COX2 2 minutes pge2 area” value under setting [3] came to 4.663.
Take `C[C@H](Nc1cncc(-c2ccc(S(C)(=O)=O)cc2)n1)c1cccs1` [Compound 109]: under setting [1], the “COX2 2 minutes pge2/pge2d4 area ratio Avg. LLE” value was 4.384. In addition, the IC50 runs as follows: under setting [2], 0.0982 µM; under setting [4], 0.0793 µM; under setting [6], 0.0132 µM. Besides, under setting [3], the “COX2 2 minutes pge2 area” value turned out to be 4.487. For the same compound, under setting [5], the “COX2 10 minutes pge2 area” value stood at 5.297.
With `C[C@@H](Oc1cncc(-c2ccc(S(C)(=O)=O)cc2)n1)c1cccs1` (single isomer, unassigned) [Compound 249], the “COX2 2 minutes pge2/pge2d4 area ratio Avg. LLE” value under setting [1] is listed as 2.526. Further, the IC50 amounted to 3.44 µM under setting [2] and 4.08 µM under setting [4]. In addition, the “COX2 2 minutes pge2 area” value under setting [3] is listed as 2.379.
Turning to `CS(=O)(=O)c1ccc(-c2cccc(C3CC3c3ccoc3)n2)cc1` (single isomer, unassigned) [Compound 322, 2-[2-(furan-3-yl)cyclopropyl]-6-(4-methanesulfonylphenyl)pyridine], the IC50 (read-out: COX2 2 minutes pge2/pge2d4 area ratio Avg. IC50 (microM), 2 minutes, readout pge2/pge2d4 area ratio, 2 min) came out at 5.2 µM.
On to `CS(=O)(=O)c1ccc(-c2cccc(C(=O)C(=O)c3cccs3)n2)cc1` [Compound 190], for which the “COX2 2 minutes pge2/pge2d4 area ratio Avg. LLE” value under setting [1] came to 3.528. In addition, the IC50 was 0.711 µM under setting [2] and 0.774 µM under setting [4]. The “COX2 2 minutes pge2 area” value under setting [3] is listed as 3.498.
Turning to `CS(=O)(=O)c1ccc(-c2ccc3c(n2)N(Cc2cccs2)C(=O)C3)cc1` [Compound 204], the “COX2 2 minutes pge2/pge2d4 area ratio Avg. LLE” value under setting [1] amounted to 2.522. For the same compound, the IC50 was 1.16 µM under setting [2] and 2.05 µM under setting [4]. In addition, the “COX2 2 minutes pge2 area” value under setting [3] is on record as 2.252.
As to `COc1cnc(-c2ccc(S(C)(=O)=O)cc2)nc1OCc1cccs1` [Compound 123], the “COX2 2 minutes pge2/pge2d4 area ratio Avg. LLE” value under setting [1] came to 3.569. Also, the IC50 reads like this: under setting [2], 0.131 µM; under setting [4], 0.121 µM. For the same compound, the “COX2 2 minutes pge2 area” value under setting [3] was determined as 3.5904.
The like results for `CS(=O)(=O)c1ccc(-c2cccc(OCc3ccc(F)cc3)n2)cc1` [Compound 95] were, in that order, 3.43, 0.0711 µM, 0.091 µM and 3.477.
As to `CS(=O)(=O)c1ccc(-c2cnc(O)c(NCc3cccs3)n2)cc1` [Compound 316], the “COX2 2 minutes pge2 area” value under setting [3] is 3.634. The IC50 under setting [7] was 5.2 µM.
Regarding `C[C@@H](Nc1cncc(-c2ccc(S(C)(=O)=O)cc2)n1)c1cccs1` [Compound 173], the “COX2 2 minutes pge2/pge2d4 area ratio Avg. LLE” value under setting [1] came out at 3.7158. The IC50 reads like this: under setting [2], 0.452 µM; under setting [4], 0.326 µM; under setting [6], 0.0384 µM. In addition, the “COX2 2 minutes pge2 area” value under setting [3] is 3.9817. For the same compound, the “COX2 10 minutes pge2 area” value under setting [5] is given as 4.808.
As to `COc1ccc(-c2ccc(S(C)(=O)=O)nc2)nc1NCc1cccs1` [Compound 158], the “COX2 2 minutes pge2/pge2d4 area ratio Avg. LLE” value under setting [1] turned out to be 3.956. Also, the IC50 is 0.359 µM under setting [2] and 0.349 µM under setting [4]. Under setting [3], the “COX2 2 minutes pge2 area” value was 3.972.
With `CS(=O)(=O)c1ccc(-c2cncc(NC[C@H]3CCCS3)n2)cc1` (single isomer, unassigned) [Compound 162], under setting [1], the “COX2 2 minutes pge2/pge2d4 area ratio Avg. LLE” value is recorded as 4.811. The IC50 under setting [2] was found to be 0.401 µM and the IC50 under setting [4] came out at 0.345 µM. Further, the “COX2 2 minutes pge2 area” value under setting [3] was 4.888.
For `CS(=O)(=O)c1ccc(-c2cncc(NCc3ccns3)n2)cc1` [Compound 142], in that order: 5.555, 0.221 µM, 0.211 µM and 5.576.
For the compound `COc1ncc(NCc2cocn2)nc1-c1ccc(S(C)(=O)=O)cc1` [Compound 291], the “COX2 2 minutes pge2/pge2d4 area ratio Avg. LLE” value under setting [1] amounted to 3.954. The “COX2 2 minutes pge2 area” value under setting [3] is 3.954. The IC50 under setting [7] was determined as 5.2 µM.
Turning to `COc1nc(NCc2cccs2)cc(-c2ccc(S(C)(=O)=O)cc2)n1` [Compound 156], under setting [1], the “COX2 2 minutes pge2/pge2d4 area ratio Avg. LLE” value stood at 3.208. Also, the IC50 is, setting by setting: under setting [2], 0.332 µM; under setting [4], 0.327 µM; under setting [6], 0.0355 µM. Further, the “COX2 2 minutes pge2 area” value under setting [3] is recorded as 3.204. Besides, the “COX2 10 minutes pge2 area” value under setting [5] worked out at 4.189.
As for `CS(=O)(=O)c1ccc(-n2ccc3ccc(/C(=N/O)c4cccs4)nc32)cc1` [Compound 195], the IC50 is, setting by setting: under setting [2], 0.885 µM; under setting [4], 0.969 µM.
